Source: US4252808A, “β-Lactam antibacterial agents, their use in pharmaceutical compositions, the process for their preparation and intermediates for use in that process” (Beecham Group Limited, priority 1978, dated 1981)
Values after ≈ are worked out from the molar mass of the structure shown. Counter-ions that a name gives are not always drawn.

How the values were obtained:
Format in all cases: cell-based
B. subtilis = assay: MIC, nutrient agar; settings: Bacillus subtilis
Staph. aureus Oxford [1] = assay: MIC, nutrient agar; settings: Staphylococcus aureus
Staph. aureus Russell [2] = assay: MIC, nutrient agar; settings: Staphylococcus aureus, Staph. aureus Russell (lactamase-producing strain)
Source text: *Lactamase-producing strain
*lactamase producing strain

β-Haemolytic Strep CN10 = assay: MIC, nutrient agar
Staph. aureus Oxford [3] = assay: MIC, nutrient broth (10^-4 dilution); settings: Staphylococcus aureus
Staph. aureus Russell [4] = assay: MIC, nutrient broth (10^-4 dilution); settings: Staphylococcus aureus, Staph. aureus Russell (lactamase producing strain)
Source text: *Lactamase producing strains
*Lactamase producing strain

E. coli JT 1 [5] = assay: MIC, nutrient broth (10^-4 dilution); settings: Escherichia coli, JT1
E. coli NCTC 10418 [6] = assay: MIC, nutrient broth (10^-4 dilution); settings: Escherichia coli, NCTC10418
E. coli JT 1 [7] = assay: MIC, nutrient broth; settings: Escherichia coli, JT1
E. coli NCTC 10418 [8] = assay: MIC, nutrient broth; settings: Escherichia coli, NCTC10418
Staph. aureus Oxford [9] = assay: MIC, nutrient broth; settings: Staphylococcus aureus
Staph. aureus Russell [10] = assay: MIC, nutrient broth; settings: Staphylococcus aureus, Staph. aureus Russell (lactamase producing strain)
Source text: | *lactamase producing strain

E. coli JT 4 = assay: MIC, nutrient agar; settings: Escherichia coli, JT4
Ps. aeruginosa Dalgleish = assay: MIC, nutrient agar; settings: Pseudomonas aeruginosa, Ps. aeruginosa Dalgleish 10^-2
Klebsiella aerogenes A = assay: MIC, nutrient agar
Enterobacter cloacae Nl = assay: MIC, nutrient agar
P. rettgeri = assay: MIC, nutrient agar; settings: Providencia rettgeri
P. mirabilis C977 = assay: MIC, nutrient agar; settings: Proteus mirabilis
P. morganii = assay: MIC, nutrient agar; settings: Morganella morganii

| SMILES | MIC (B. subtilis) [µg/mL] | MIC (Staph. aureus Oxford [1]) [µg/mL] | MIC (Staph. aureus Russell [2]) [µg/mL] | MIC (β-Haemolytic Strep CN10) [µg/mL] | MIC (Staph. aureus Oxford [3]) [µg/mL] | MIC (Staph. aureus Russell [4]) [µg/mL] | MIC (E. coli JT 1 [5]) [µg/mL] | MIC (E. coli NCTC 10418 [6]) [µg/mL] | also measured |
| --- | --- | --- | --- | --- | --- | --- | --- | --- | --- |
| O=C(COc1ccccc1)N[C@@H]1C(=O)N2C(C(=O)O)=Cc3cnnn3[C@H]12 [Compound 11, (3aR,4S)4,5-dihydro-5-oxo-4-phenoxyacetamido-3aH-azeto-[1,2-a]v-triazolo[3,4-c]pyrimidine-7-carboxylic acid] | 2.5 (≈ 7.04 µM) | 10 (≈ 28.1 µM) | 50 (≈ 141 µM) | 10 (≈ 28.1 µM) | – | – | – | – | – |
| O=C(O)C1=Cc2c(-c3ccccc3)nnn2[C@@H]2[C@H](NC(=O)[C@H](O)c3ccccc3)C(=O)N12 [Compound 18, (3aR,4S) 4,5-Dihydro-5-oxo-9-phenyl-4-D-mandelylamino-3aH-azeto-[1,2a]v-triazolo[3,4-c]pyrimidine-7-carboxylic acid] | – | – | – | – | 31 (≈ 71.9 µM) | 125 (≈ 290 µM) | 125 (≈ 290 µM) | 125 (≈ 290 µM) | – |
| N[C@@H](C(=O)N[C@@H]1C(=O)N2C(C(=O)O)=Cc3c(-c4ccccc4)nnn3[C@H]12)c1ccccc1 [Compound 24, (3aR,4S)-4,5-Dihydro-5-oxo-9-phenyl-4-D-α-phenylglycylamino-3aH-azeto[1,2-a]v-triazolo [3,4-c]pyrimidine-7-carboxylic acid, trifluoroacetic acid salt] | – | – | – | – | 62 | 125 | 125 | 125 | – |
| O=C(COc1ccccc1)N[C@@H]1C(=O)N2C(C(=O)O)=Cc3c(-c4ccc([N+](=O)[O-])cc4)nnn3[C@H]12 [Compound 33, (3aR,4S) 4,5-Dihydro-5-oxo-9-p-nitrophenyl-4-phenoxy-acetamido-3aH azeto[1,2-a]v-triazolo[3,4-c]pyrimidine-7-carboxylic acid] | – | – | – | – | – | – | – | – | MIC (E. coli JT 1 [7]): 500 µg/mL (≈ 1050 µM); MIC (E. coli NCTC 10418 [8]): 500 µg/mL (≈ 1050 µM); MIC (Staph. aureus Oxford [9]): 16 µg/mL (≈ 33.6 µM); MIC (Staph. aureus Russell [10]): 31 µg/mL (≈ 65.1 µM) |
| CC1=C(C(=O)O)N2C(=O)[C@@H](NC(=O)COc3ccccc3)[C@H]2n2nncc21 [Compound 41, (3aR,4S) 4,5-Dihydro-5-oxo-8-methyl-4-phenoxyacetamido-3aH azeto[1,2-a]v-triazolo[3,4-c]pyrimidine-7-carboxylate acid] | < 0.2 | 2.5 (≈ 6.77 µM) | 5 (≈ 13.5 µM) | 0.5 (≈ 1.35 µM) | – | – | – | – | MIC (E. coli JT 4): 100 µg/mL (≈ 271 µM); MIC (Ps. aeruginosa Dalgleish): 100 µg/mL (≈ 271 µM); MIC (Klebsiella aerogenes A): 100 µg/mL (≈ 271 µM); MIC (Enterobacter cloacae Nl): 100 µg/mL (≈ 271 µM); MIC (P. rettgeri): 100 µg/mL (≈ 271 µM); MIC (P. mirabilis C977): > 100 µg/mL; MIC (P. morganii): > 100 µg/mL |
